{"source": "patent US6566587B1", "about": "“Mutated 5-enolpyruvylshikimate-3-phosphate synthase, gene coding for said protein and transformed plants containing said gene” (priority 1995, dated 2003)", "key": {"[1]": {"test_system": "maize EPSPS mutant Ala101/Ile102 (Gly 101→Ala and Thr 102→Ile)", "experiment": "In vitro EPSP synthase activity, inhibition by glyphosate (phosphate liberated)", "type": "biochemical", "description": "(§1) 2.a: Extraction of EPSP synthase The different EPSP synthase genes are introduced in the form of an NcoI-HindIII cassette into the plasmid vector pTro99a (Pharmacia, ref: 27-5007-01) cut with NcoI and HindIII. Recombinant E. coli DH10B bacteria overexpressing the different EPSP synthases are sonicated in 40 ml of buffer per 10 g of pelleted cells, and washed with this same buffer (200 mM Tris-HCl pH 7.8, 50 mM mercaptoethanol, 5 mM EDTA and 1 mM PMSF), to which 1 g of polyvinylpyrrolidone is added. The suspension is stirred for 15 minutes at 4° C. and then centrifuged for 20 minutes at 27,000 g and 4° C.\n(§2) Ammonium sulphate is added to the supernatant to bring the solution to 40% saturation with respect to ammonium sulphate. The mixture is centrifuged for 20 minutes at 27,000 g and 4° C. Ammonium sulphate is added to the new supernatant to bring the solution to 70% saturation with respect to ammonium sulphate. The mixture is centrifuged for 30 minutes at 27,000 g and 4° C. The EPSP synthase present in this protein pellet is taken up in 1 ml of buffer (20 mM Tris-HCl pH 7.8 and 50 mM mercaptoethanol). This solution is dialysed overnight against two liters of this same buffer at 4° C.\n(§3) The activity of each enzyme, as well as its glyphosate resistance, is measured in vitro over 10 minutes at 37° C. in the following reaction mixture: 100 mM maleic acid pH 5.6, 1 mM phosphoenolpyruvate, 3 mM shikimate 3-phosphate (prepared according to Knowles P. R. and Sprinson D. B. 1970. Methods in Enzymol 17A, 351-352 from Aerobacter aerogenes strain ATCC 25597) and 10 mM potassium fluoride. The enzyme extract is added at the last moment after the addition of glyphosate, the final concentration of which varies from 0 to 20 mM.\n(§4) The activity is measured by assaying the phosphate liberated according to the technique of Tausky H. A. and Shorr E. 1953. J. Biol. Chem. 202, 675-685."}, "maize EPSPS mutant Ala": {"test_system": "maize EPSPS mutant Ala", "experiment": "In vitro EPSP synthase activity, inhibition by glyphosate (phosphate liberated)", "type": "biochemical", "description": "as §1, §2, §3, §4"}, "[2]": {"biological_target": "T1, maize EPSPS mutant Ile102 (Thr 102→Ile) (Zea mays, UniProt O24566, T102I)", "T1 sequence (O24566 1-444 T102I)": "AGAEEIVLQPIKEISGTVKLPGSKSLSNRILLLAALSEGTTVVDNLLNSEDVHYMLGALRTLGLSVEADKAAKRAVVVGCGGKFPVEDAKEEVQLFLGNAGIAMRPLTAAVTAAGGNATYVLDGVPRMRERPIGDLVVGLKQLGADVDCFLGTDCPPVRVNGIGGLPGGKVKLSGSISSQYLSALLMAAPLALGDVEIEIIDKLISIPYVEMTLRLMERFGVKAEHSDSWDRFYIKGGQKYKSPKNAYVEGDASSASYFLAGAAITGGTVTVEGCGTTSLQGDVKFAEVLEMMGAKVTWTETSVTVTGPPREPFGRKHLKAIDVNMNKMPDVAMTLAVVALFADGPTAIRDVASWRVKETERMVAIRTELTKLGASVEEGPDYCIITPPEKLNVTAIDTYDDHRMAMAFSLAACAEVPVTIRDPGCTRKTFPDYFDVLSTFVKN", "experiment": "In vitro EPSP synthase activity, inhibition by glyphosate (phosphate liberated)", "type": "biochemical", "conditions": "10 minutes at 37° C., pH 5.6, 1 mM phosphoenolpyruvate", "description": "as §1, §2, §3, §4"}, "[3]": {"test_system": "maize EPSPS mutant Ile102/Ser106 (Thr 102→Ile and Pro 106→Ser)", "experiment": "In vitro EPSP synthase activity, inhibition by glyphosate (phosphate liberated)", "type": "biochemical", "description": "as §1, §2, §3, §4"}, "[4]": {"test_system": "maize EPSPS mutant Ser106 (Pro 106→Ser)", "experiment": "In vitro EPSP synthase activity, inhibition by glyphosate (phosphate liberated)", "type": "biochemical", "conditions": "glyphosate 0.12 mM; 10 minutes at 37° C., pH 5.6, 1 mM phosphoenolpyruvate", "description": "as §1, §2, §3, §4"}, "[5]": {"test_system": "wild-type (WT) maize EPSPS", "experiment": "In vitro EPSP synthase activity, inhibition by glyphosate (phosphate liberated)", "type": "biochemical", "conditions": "glyphosate 0.12 mM; 10 minutes at 37° C., pH 5.6, 1 mM phosphoenolpyruvate", "description": "as §1, §2, §3, §4"}, "[6]": {"test_system": "BMS (Black Mexican Sweet) maize cells not bombarded", "experiment": "Growth of maize cells on medium containing herbicide", "type": "cell-based", "conditions": "2 mM in medium", "description": "(§5) BMS (Black Mexican Sweet) maize cells in an exponential growth phase are bombarded with the construction pRPA-RD-130 according to the principle and the protocol described by Klein et al. 1987 (Klein T. M., Wolf E. D., Wu R. and Sandford J. C. (1987): High velocity microprojectiles for delivering nucleic acids into living cells, NATURE Vol. 327 pp. 70-73).\n(§6) Two days after bomardment, the cells are transferred to the same medium containing 2 mM N-(phosphonomethyl)glycine."}, "[7]": {"test_system": "BMS (Black Mexican Sweet) maize cells bombarded with the construction pRPA-RD-130", "experiment": "Selection of transformed maize cells on medium containing herbicide", "type": "cell-based", "conditions": "2 mM in medium, 8 weeks of selection", "description": "as §5, §6"}, "[8]": {"conditions": "glyphosate concentrations up to 10 mM"}}}
{"molecule": "O=C(O)CNCP(=O)(O)O", "note": "[glyphosate, N-(phosphonomethyl)glycine]", "values": [{"measurement": "inhibition of enzyme activity", "setting": "[1]; glyphosate 0.12 mM", "value": "little or no inhibition"}, {"measurement": "inhibition of enzyme activity", "setting": "[1]; glyphosate 1.2 mM", "value": "still not being inhibited"}, {"measurement": "inhibition of enzyme activity", "setting": "[1]; [8]", "value": "not inhibited"}, {"measurement": "inhibition of enzyme activity", "setting": "maize EPSPS mutant Ala; glyphosate 1.2 mM", "value": "still not being inhibited"}, {"measurement": "inhibition of enzyme activity", "setting": "maize EPSPS mutant Ala; [8]", "value": "not inhibited"}, {"measurement": "IC50", "setting": "[2]; read-out: glyphosate concentration producing a 50% inhibition", "value": 1.2, "unit": "mM"}, {"measurement": "inhibition of enzyme activity", "setting": "[2]; glyphosate 0.12 mM", "value": "little or no inhibition"}, {"measurement": "inhibition of enzyme activity", "setting": "[3]; glyphosate 0.12 mM", "value": "little or no inhibition"}, {"measurement": "inhibition of enzyme activity", "setting": "[3]; glyphosate 1.2 mM", "value": "still not being inhibited"}, {"measurement": "inhibition of enzyme activity", "setting": "[3]; glyphosate 20 mM", "value": "not reduced"}, {"measurement": "inhibition of enzyme activity", "setting": "[4]", "value": 50, "unit": "%"}, {"measurement": "inhibition of enzyme activity", "setting": "[5]", "value": 85, "unit": "%"}, {"measurement": "cell growth on medium containing herbicide", "setting": "[6]", "value": "blocked by the herbicide and do not develop"}, {"measurement": "callus development on selection medium", "setting": "[7]", "value": "calluses which develop"}]}
